System: SMN2-linked luciferase-reporter gene construct
Assay: SMN Splice Reporter Assay (SMN2-linked luciferase reporter)
Type: cell-based
Details: for EC50: cervical carcinoma cell lines, SMN2 splice luciferase reporter; for Fold Increase: fold-increase of luciferase over baseline reading of transformed cells without any test compound
From the text: As previously discussed, SMN1 is the gene deleted in SMA patients; the SMN2 gene remains intact in both SMA and normal patients. Therefore, SMN2 provides a potential means of increasing SMN production in SMA patients and is, thus, a target for developing SMA treatments. SMN2 is identical to SMN1 with the exception of a single base pair change that results in reduced expression of the gene. The reduction is based on the creation of an alternatively spliced RNA that produces an unstable protein carrying a deletion of exon 7. Both full length SMN and exon 7 deleted SMN are produced by the SMN2 gene via alternative RNA splicing, but the major product is the unstable deleted form.
Cervical carcinoma cell lines were transformed with a SMN2-linked luciferase-reporter gene construct. The reporter is designed to detect shifts in the alternative splicing of SMN2 sequences. In particular, the reporter is constructed as a fusion of the alternatively spliced sequences of the SMN2 gene and the luciferase gene. Luciferase sequences are in the correct translational reading frame only when the SMN2 sequences are spliced according to the normal SMN1 mechanism (e.g., splicing to include exon 7), which allows for translation of the stable SMN protein. Compounds were tested in the assay by administering the compound to the cell line and detecting an increase in the luciferase activity. The assay is described in greater detail in Zhang et al., Gene Ther., 8: 1532-8 (2001). Compounds were administered as described in Lunn et al, Chem. & Biol, 11: 1489-1493 (2004).
The results are reported as a fold-increase over a baseline reading of transformed cells without any test compound. The EC50 value also is reported in Table 1 for some exemplary compounds of the invention.

Structure (SMILES)	EC50 [nM]	Fold Increase
COc1ccc2c(c1)C(=O)N(c1ccc3c(c1)c(C)c(C)n3C)C2 [Example 120597]	777	1.434
Cn1ccc2ccc(N3Cc4cccc(Br)c4C3=O)cc21 [Example 120281]	397	1.788
O=C1c2cc(Br)ccc2CN1c1ccc2ccsc2c1 [Example 122557]	–	1.383
COc1ccc2c(c1)C(=O)N(c1ccc(Br)cn1)C2 [Example 118737]	415	1.358
O=C(O)C1CCc2cc(N3Cc4ccccc4C3=O)ccc21 (centres unmarked) [Example 113488]	–	1.24
Cc1ccc2c(c1)CN(c1ccc3ccn(C)c3c1)C2=O [Example 120434]	54	1.708
CC(=O)Nc1cccc2c1CN(c1ccc3ccn(C)c3c1)C2=O [Example 121075]	–	1.087
COc1ccc2c(c1)C(=O)N(c1ccc3nccc(N(C)C)c3c1)C2 [Example 122820]	–	1.066
COc1ccc2c(c1)C(=O)N(c1ccc(C(C)C)cn1)C2 [Example 119654]	235	1.44
COc1ccc2c(c1)C(=O)N(c1ccc3c(c1)CC(=O)N3)C2 [Example 121077]	–	1.107
COc1ccc2c(c1)C(=O)N(c1ccc3ncn(C)c3c1)C2 [Example 120598]	183	1.552
COc1cc2c(cc1OC)C(=O)N(c1ccc3ncccc3c1)C2 [Example 120954]	2040	1.356
CC(C)n1ccc2cc(N3Cc4ccc(N5CCCC5)cc4C3=O)ccc21 [Example 125384]	–	1.091
COc1ccc2c(c1)C(=O)N(c1ccc3ccc(O)nc3c1)C2 [Example 124170]	–	1.102
COc1ccc2c(c1)C(=O)N(c1ccc3c(c1)OCC(=O)N3)C2 [Example 119656]	78	1.375
COCCn1ccc2ccc(N3Cc4ccc(OC)cc4C3=O)cc21 [Example 120284]	7870	1.19
Cn1ccc2ccc(N3Cc4ccc(OC(F)F)cc4C3=O)cc21 [Example 120591]	509	1.709

Continued, in another order:

EC50 [nM]	Structure (SMILES)	Fold Increase
226	O=C1c2cc(OC(F)F)ccc2CN1c1ccc2ccsc2c1 [Example 121512]	1.766
46	COc1ccc2c(c1)C(=O)N(c1ccc3ccc(C)nc3c1)C2 [Example 124430]	1.411
569	CCC(C)c1ccc2c(c1)C(=O)N(c1ccc3c(c1)cc(C)n3C)C2 (centres unmarked) [Example 123329]	1.327
197	CCc1ccc2c(c1)C(=O)N(c1ccc3c(c1)cc(C)n3C)C2 [Example 123016]	1.481
7120	COc1ccc2c(c1)C(=O)N(c1ccc3nc(N(C)C)ncc3c1)C2 [Example 122039]	1.459
347	Nc1ccc2c(c1)C(=O)N(c1ccc3ccsc3c1)C2 [Example 122036]	1.827
128	COc1ccc2c(c1)C(=O)N(c1ccc3sc(C)c(C)c3c1)C2 [Example 123590]	1.405
116	COc1ccc2c(c1)C(=O)N(c1ccc3c(c1)cc1n3CCC1)C2 [Example 124651]	1.452
96	Cn1ccc2ccc(N3Cc4ccc(N5CCCCC5)cc4C3=O)cc21 [Example 124650]	1.684
20	COc1ccc2c(c1)C(=O)N(c1ccc3nc(OC)ccc3c1)C2 [Example 123333]	1.376
422	Cc1ccc2c(c1)C(=O)N(c1ccc3ccn(C)c3c1)C2 [Example 121504]	1.742
327	COc1ccc2c(c1)C(=O)N(c1ccc3cc4n(c3c1)CCC4)C2 [Example 124774]	1.369
784	COc1ccc2c(c1)C(=O)N(c1ccc3ccc(OC)nc3c1)C2 [Example 123936]	1.429
